Source: publication PMC12888861, “Antibacterial activity of enmetazobactam against Acinetobacter spp.: a molecular dissection of mechanism of action and resistance determinants” (Antimicrobial Agents and Chemotherapy, 2025)

How the values were obtained:
[1] = test system: [H][C@@]12CC(=O)N1[C@@H](C(=O)[O-])[C@](C)(Cn1cc[n+](C)n1)S2(=O)=O; test: purified protein, by the assay type; settings: other: hydrolysis by OXA-23, 25°C, pH 7.4
Method: All kinetics measurements were performed in triplicate, at 25°C, in 20 mM NaHCO3 and 50 mM Na2HPO4 at pH 7.4.

[2] = test system: carbapenem-resistant CHDL-producing A. baumannii isolates (OXA-23, OXA-24/40, OXA-58); test: Checkerboard synergy assay (FIC index); type: cell-based, Acinetobacter baumannii; settings: checkerboard colistin x enmetazobactam, alone or in presence of the partner
Method: Checkerboard assays were performed to assess synergistic interactions between the cefepime/enmetazobactam combination and sulbactam, as well as between enmetazobactam alone and either sulbactam or colistin. […] The assays were conducted with three multidrug-resistant A. baumannii isolates from the Spanish Multicenter Collection, each producing a different OXA-type carbapenemase: OXA-23, OXA-24/40, or OXA-58. The FIC index was calculated and interpreted as follows: FICindex ≤ 0.5, synergy; FICindex > 0.5–4, no synergy; and FICindex > 4, antagonism ([33], [34]).

OXA-23 [3] = target: T1, OXA-23 (Acinetobacter baumannii, UniProt Q9L4P2); test: OXA-23 inhibition assay (nitrocefin hydrolysis IC50); type: biochemical; settings: OXA-23; nitrocefin hydrolysis; 10 min preincubation at room temperature; read-out: IC50
T1 construct: GST (N); made in house; host or cells: Escherichia coli BL21
Method: (§1) The Michaelis-Menten constant (Km) was determined by fitting the data to the Michaelis-Menten equation, following established protocols ([38]). The kcat (hydrolysis rate constant of the β-lactamase) was obtained by linearization of the kinetic data ([39]). To assess the possible inhibitory capacity of enmetazobactam against the CHDLs of A. baumannii, specific OXA-23 inhibition kinetics assays were performed in a Nanoquant Infinite spectrophotometer (Tecan). […] Also, the dissociation constant (koff), which represents the rate at which the enzyme-inhibitor complex dissociates (i.e., the proportion of the enzyme-inhibitor complex that dissociates per unit of time), was determined through a jump-dilution assay that monitored OXA-23 activity recovery as the enzyme-inhibitor complex dissociated. OXA-23 (1 µM) was preincubated for 30 min at 37°C with excess of inhibitors (50× IC₅₀) to ensure full acyl-enzyme complex formation. Subsequently, the mixture was diluted 1:5,000 to allow gradual complex dissociation. […] Enzymatic activity, reflecting the progressive dissociation of the acyl-enzyme complex, was monitored spectrophotometrically at 490 nm for 8 h. The resulting progress curves were fitted using GraphPad Prism (GraphPad Software, MA, USA) to equation 1 to estimate koff, where V0 is the initial, inhibited enzyme velocity; Vs is the steady-state uninhibited enzyme velocity, and t is time.

OXA-23 [4] = target: T1, OXA-23; test: Jump-dilution dissociation assay (koff, t1/2) with OXA-23; type: biochemical
Method: as §1
(1) P=Vs×t+(V0−Vs)×[1−exp^(−koff × t)]/koff

OXA-24/40 = settings: cited from earlier work

T1 sequence (Q9L4P2 18-273): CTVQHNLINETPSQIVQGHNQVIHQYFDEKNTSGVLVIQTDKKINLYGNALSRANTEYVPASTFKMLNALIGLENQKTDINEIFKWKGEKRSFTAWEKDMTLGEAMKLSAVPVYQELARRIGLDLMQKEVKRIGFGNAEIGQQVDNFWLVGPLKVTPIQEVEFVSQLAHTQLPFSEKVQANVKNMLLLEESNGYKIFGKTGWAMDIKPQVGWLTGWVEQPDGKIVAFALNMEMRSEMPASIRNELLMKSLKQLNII

Question: For OXA-23 (Acinetobacter baumannii), which Km [1] is on record?
Answer: 171.85 ± 55.78 µM

Question: And the kcat [1]?
Answer: 0.177 ± 0.056 s⁻¹

Question: What about the kcat/Km [1] of the same compound?
Answer: 1030 M⁻¹ s⁻¹

Question: For colistin, which MIC ([2]; isolate Ab4 (OXA-23)) is on record?
Answer: 1 µg/mL

Question: And the MIC ([2]; isolate Ab138 (OXA-58))?
Answer: 1 µg/mL

Question: And the MIC ([2]; isolate Ab180 (OXA-24/40))?
Answer: 0.25 µg/mL

Question: What does the source list for `CC1=C[C@@H]2CN(C(=O)N2OS(=O)(=O)O)[C@@H]1C(N)=O` [durlobactam]?
Answer: IC50 (OXA-23 [3]): 170 nM; residence time (OXA-23 [4]; jump dilution): 412 ± 4 min; koff (OXA-23 [4]; jump dilution 1:5,000): 2.8e-05 s⁻¹; IC50 (OXA-24/40): 190 nM
